The source of these data is PMC12959137 (Antimicrobial Agents and Chemotherapy, 2026).

Structures are written as SMILES.

In the assay the target is KPC-2 (Klebsiella pneumoniae, UniProt Q9F663). It is filed as biochemical. To be noted: read-out: KM for nitrocefin hydrolysis (used in Morrison fit).
KPC-2, sequence (Q9F663 25-293 limits assumed): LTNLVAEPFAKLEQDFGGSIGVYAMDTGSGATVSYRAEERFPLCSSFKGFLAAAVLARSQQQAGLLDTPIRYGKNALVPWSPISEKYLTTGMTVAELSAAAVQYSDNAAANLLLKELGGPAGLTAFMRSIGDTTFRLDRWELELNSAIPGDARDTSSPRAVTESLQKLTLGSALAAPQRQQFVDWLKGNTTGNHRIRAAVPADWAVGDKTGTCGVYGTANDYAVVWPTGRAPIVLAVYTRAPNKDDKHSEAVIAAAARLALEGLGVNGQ

Description: Initial velocities (v₀) were determined by fitting the reaction progress curves by linear regression. These velocities were then plotted against buffer concentrations and analyzed using the Morrison equation to determine the inhibition constant (Ki) ([33]). […] All data analysis and curve fitting were performed using GraphPad Prism (version 10.3.1).

With `O=C(Cc1cccs1)N[C@@H]1C(=O)N2C(C(=O)O)=C(/C=C/c3ccc([N+](=O)[O-])cc3[N+](=O)[O-])CS[C@H]12` [nitrocefin], the Km (as a rule, the concentration of substrate that gives half-maximal velocity) amounted to 45 µM.
